Assay results from patent US8828942B2, “Means for treating synucleinopathies” (Affiris AG, priority 2009, dated 2014).
“Also recorded” adds a separate entry of the source.

Experiments:
[1] = In vivo testing of mimotopes: serum titer against injected peptide (ELISA); settings: mice, 30 μg peptide coupled to KLH, alum, s.c.; titer by ELISA as OD halfmax
Procedure: (§1) Inhibiting as well as non-inhibiting peptides were coupled to KLH and injected into mice (wildtype C57/B16 or BalbC mice; subcutaneous injection into the flank) together with an appropriate adjuvant (aluminium hydroxide). Animals were vaccinated 3 times in biweekly intervals and sera were taken biweekly as well. Titers to injected peptides as well as to an irrelevant peptide were determined with every serum. Titers against the recombinant human alpha-synuclein protein and recombinant human beta-synuclein were determined starting with Serum 2 respectively. In general sera were analysed by reaction against peptides coupled to Bovine Serum Albumin (BSA) and recombinant full length proteins which were immobilised on ELISA plates. Titers were determined using anti mouse IgG specific antibodies. For examples of immunogenicity against injected peptide and alpha-synuclein see Table 5 and Table 6.
(§2) Female C57/B16 mice or BalbC, 5-6 mice per group, were subcutaneously immunized with 30 μg peptide coupled to KLH. Control groups were injected with PBS or the original epitope. As adjuvant alum was used. The peptides administered were all able to bind to monoclonal antibodies specifically binding aa100-109 of human alpha-synuclein although some of the peptides did inhibit the binding of the original epitope to its parental antibody in vitro only weakly (in an in vitro inhibition assay). The in vitro ELISA assay to determine the antibody titer was performed with sera of single mice (see Tab. 5) after each vaccination in a two week interval. The wells of the ELISA plate were coated with mimotope-BSA conjugates. The positive control was performed by reaction of the parental antibody with the respective mimotope-BSA conjugate. The detection was performed with anti-mouse IgG. Additionally, recombinant proteins were immobilised on ELISA plates and sera reacted accordingly. For all mimotopes tested in C57/B16 mice or BalbC, antibodies reacting to the individual injected peptide could be detected after repeated vaccination. Although not all mice induced higher titer against alpha-synuclein (see tab. 5 for examples).

[2] = test system: monoclonal antibody 12-9-9; test: In vitro binding assay (ELISA) with monoclonal antibody 12-9-9; parameters: species or system mouse; key to Binding: 0: no binding to 12-9-9 detectable in ELISA; 1: weak binding: binding of mimotope weaker compared to the minimal original sequence p5436; 2: strong binding: binding of mimotope similar to the minimal original sequence p5436; settings: for Binding: binding capacity to 12-9-9 in ELISA, peptide-BSA coated (1 μM), compared with p5436; for detection/binding by monoclonal antibody 12-9-9 in ELISA: result in words
Source text: A monoclonal antibody derived from the fusion “AFFiRiS 6”: Balb/c mice (Charles River) were immunized with original alpha-synuclein epitope LGKNEEGAPQ-C (SEQ ID NO:3) coupled to BTG (bovine thyroglobuline) and CFA (complete Freund's adjuvant; first injection) as well as IFA (incomplete Freund's adjuvant; 3 booster injections) as adjuvant. LGKNEEGAPQ-peptide-specific (SEQ ID NO: 203) antibody-producing hybridomas are detected by ELISA (LGKNEEGAPQC-peptide-coated (SEQ ID NO: 3)ELISA plates). Human alpha-synuclein (recombinant protein, p4446) is used as positive control peptide: hybridomas recognizing the recombinant protein immobilized on ELISA plates are included because they are binding both peptide and full length alpha-synuclein specifically. […] The Hybridoma clone (12-9-9; IgG1, kappa) was analysed for specific detection of the natural human alpha-synuclein epitope LGKNEEGAPQ. (SEQ ID NO: 203). 12-9-9 recognizes the injected epitope as well as full length alpha-synuclein protein (recombinant protein; obtained from rPeptide, Bogart, Ga., USA) in ELISA (see FIG. 2). […] Thus the minimal required epitope for binding has been defined as KNEEGAP (SEQ ID NO: 139).
Peptides derived from Phage Display as well as N-terminally truncated variants thereof were coupled to BSA and bound to ELISA plates (1 μM) and subsequently incubated with the monoclonal antibody that was used for the screening procedure to analyse binding capacity of identified peptides (see FIG. 4).

[3] = test system: monoclonal antibody 12-9-9; test: In vitro inhibition assay (ELISA); format: binding, mouse; parameters: key: 0: no competition of 12-9-9 detectable in ELISA; 1: weak competition: competition of mimotope weaker compared to the minimal original sequence p5436; 2: strong competition: competition of mimotope similar to the minimal original sequence p5436; settings: competition capacity in ELISA, peptide 400 μg/ml to 3 μg/ml, plates coated with p5436 and p4446
Procedure: Different amounts of peptides (concentrations ranging from 400 μg/ml to 3 μg/ml (serial dilutions), derived from Phage Display were incubated with the monoclonal antibody that was used for the screening procedure. Peptides diminishing subsequent binding of the antibody to the original human alpha-synuclein epitope (p5436) and the human alpha-synuclein protein (p4446) coated on ELISA plates were considered as inhibiting in this assay.

[4] = test system: recombinant human alpha-synuclein protein; test: In vivo testing of mimotopes: serum titer against alpha-synuclein (ELISA); settings: mice immunized with peptide-KLH, alum, OD halfmax
Procedure: as §1, §2

Row | Sequence | Titer in animals OD halfmax injected pep. [1] | Binding [2] | detection/binding by monoclonal antibody 12-9-9 in ELISA [2] | Competition [3] | class of immunogenicity: a Syn [4]
1 | KNAEGAPC [p5439, mimotope] | 8000 | 2 | detected similarly | 1 | 1 (peptides inducing an immune response with OD halfmax between 1000 and 51.)
2 | KNDEGAPC [p5445, mimotope] | 26000 | 2 |  | 2 | 2 (peptides inducing an immune response with OD halfmax higher than 1000.)
3 | KNEEGAPC [p5436, reference compound] | 10000 | 2 | detected similarly; also recorded: retained full binding capacities | 2 | 2 (peptides inducing an immune response with OD halfmax higher than 1000.)
4 | LGKNEEGAPC [p5402, reference compound] | 20000 | 2 | retained full binding capacities | 2 | 2 (peptides inducing an immune response with OD halfmax higher than 1000.)
5 | RNEEGAPC [p5443, mimotope] | 9000 | 2 |  | 2 | 1 (peptides inducing an immune response with OD halfmax between 1000 and 51.)
